Test: method code SF-AS, from DOI: 10.1016/0021-9673(94)85294-4

CCCNC(=O)c1cccn1C
logP: 1.63

CCNC(=O)c1c[nH]c2ccccc12
logP: 1.62

CCCNC(=O)c1cc2ccccc2[nH]1
logP: 2.8

CCOC(=O)c1cc2ccccc2o1
logP: 3.05

CCNC(=O)c1cc2ccccc2[nH]1
logP: 2.32

CNC(=O)c1cc2ccccc2[nH]1
logP: 1.9

CNC(=O)c1ccc[nH]1
logP: 0.42

CCNC(=O)c1cccn1C
logP: 1.09

COC(=O)c1cc2ccccc2[nH]1
logP: 2.78

NC(=O)c1ccc[nH]1
logP: 0.09

CCCOC(=O)c1ccoc1
logP: 2.36

CCOC(=O)c1ccc[nH]1
logP: 1.73

CNC(=O)c1cccn1C
logP: 0.71

CCCNC(=O)c1cc2ccccc2o1
logP: 2.65

CNC(=O)c1cc2ccccc2o1
logP: 1.85

CCCNC(=O)c1ccccc1
logP: 1.72

CCCNC(=O)c1ccoc1
logP: 1.2

CNC(=O)c1c[nH]c2ccccc12
logP: 1.25

CCCNC(=O)c1ccc[nH]1
logP: 1.25

CCNC(=O)c1ccccc1
logP: 1.28

COC(=O)c1cccn1C
logP: 1.8

CCNC(=O)c1ccc[nH]1
logP: 0.8

NC(=O)c1cc2ccccc2[nH]1
logP: 1.61

CCCNC(=O)c1ccco1
logP: 1.1

Cn1cccc1C(N)=O
logP: 0.45

CCNC(=O)c1cc2ccccc2o1
logP: 2.22

NC(=O)c1cc2ccccc2o1
logP: 1.54
